According to US20080200567A1, “IN VIVO SCREENING MODELS FOR TREATMENT OF ALZHEIMER'S DISEASE AND OTHER QPCT-RELATED DISORDERS” (PROBIODRUG AG, priority 2007, published 2008):

Assays:
[1] = Nonenzymatic turnover (cyclization) of model substrates; format: physicochemical; conditions: without enzyme
mammalian QC = conditions: Busby et al. 1987 and later reports; cited from earlier work
human QC = molecular target: T1, human QC (Homo sapiens, UniProt Q16769); test: QC inhibition by chelators (inhibitor assay); format: biochemical; conditions: human QC and other animal QCs
T1 construct: The cDNA of the mature QC starting with codon 38 was fused in frame with the plasmid encoded 6× histidine tag; 6x histidine; made in house; host or cells: Pichia pastoris X33 (pPICZαB) or E. coli M15 (pQE-31)
T1 sequence (Q16769 29-361): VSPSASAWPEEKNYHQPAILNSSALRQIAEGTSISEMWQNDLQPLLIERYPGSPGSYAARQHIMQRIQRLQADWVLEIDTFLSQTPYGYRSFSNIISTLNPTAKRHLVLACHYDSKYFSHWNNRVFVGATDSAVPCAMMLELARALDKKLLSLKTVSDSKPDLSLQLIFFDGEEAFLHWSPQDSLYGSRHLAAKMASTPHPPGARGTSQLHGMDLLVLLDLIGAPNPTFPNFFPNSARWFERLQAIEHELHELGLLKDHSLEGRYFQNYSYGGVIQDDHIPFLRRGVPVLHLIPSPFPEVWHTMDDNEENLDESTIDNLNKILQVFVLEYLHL
Experimental: QC activity was evaluated fluorometrically using H-Gln-βNA. The samples consisted of 0.2 mM fluorogenic substrate, 0.25 U pyroglutamyl aminopeptidase (Unizyme, Horsholm, Denmark) in 0.2 M Tris/HCl, pH 8.0 containing 20 mM EDTA and an appropriately diluted aliquot of QC in a final volume of 250 μl. Excitation/emission wavelengths were 320/410 nm. The assay reactions were initiated by addition of glutaminyl cyclase. QC activity was determined from a standard curve of β-naphthylamine under assay conditions.
Reactions were carried out at 30° C. utilizing the NOVOStar reader for microplates (BMG labtechnologies). The samples consisted of varying concentrations of the fluorogenic substrate, 0.1 U pyroglutamyl aminopeptidase (Qiagen) in 0.05 M Tris/HCl, pH 8.0 containing 5 mM EDTA and an appropriately diluted aliquot of QC in a final volume of 250 μl. Excitation/emission wavelengths were 380/460 nm. The assay reactions were initiated by addition of glutaminyl cyclase. QC activity was determined from a standard curve of 7-amino-4-methylcoumarin under assay conditions. The kinetic data were evaluated using GraFit software.
This novel assay was used to determine the kinetic parameters for most of the QC substrates.
The initial velocities were evaluated and the enzymatic activity was determined from a standard curve of ammonia under assay conditions. All samples were measured at 30° C., using either the […]uor Plus or the Sunrise (both from TECAN) reader for microplates. Kinetic data was evaluated using GraFit software.
For inhibitor testing, the sample composition was the same as described above, except for the putative inhibitory compound added. For a rapid test of QC-inhibition, samples contained 4 mM of the respective inhibitor and a substrate concentration at 1 KM. For detailed investigations of the inhibition and determination of Ki-values, influence of the inhibitor on the auxiliary enzymes was investigated first. […] The inhibitory constant was evaluated by fitting the set of progress curves to the general equation for competitive inhibition using GraFit software.

[2] = cited from earlier work
QC = test: pH-dependence of the QC catalyzed conversion of Glu-βNA; format: biochemical

Compound: NC(=O)CC[C@H](N)C(=O)Nc1ccc2ccccc2c1 [Gln-NA, Glutaminyl-beta-naphthylamine]
- nonenzymatic turnover [1]: negligible

Compound: reduced 6-methylpterin
- Inhibition of a mammalian QC (mammalian QC): detected

Compound: O=C(O)CN(CCN(CC(=O)O)CC(=O)O)CC(=O)O [EDTA]
- Inhibition of a mammalian QC (mammalian QC): did not inhibit

Compound: c1cnc2c(c1)ccc1cccnc12 [1,10-phenanthroline]
- inhibition characteristics of QC by chelators (human QC): inhibition
- Inhibition of a mammalian QC (mammalian QC): detected

Compound: Oc1cccc2cccnc12 [8-hydroxy-quinoline]
- inhibition characteristics of QC by chelators (human QC): inhibition

Compound: O=C(O)c1cccc(C(=O)O)n1 [dipicolinic acid]
- inhibition characteristics of QC by chelators (human QC): inhibition

Compound: N[C@@H](CCC(=O)O)C(=O)O [Glutamate]
- pKa-value for the α-amino moiety [2]: ~7.5
- pKa-value for the γ-carboxylic moiety [2]: about 4.2

Compound: N[C@@H](CCC(=O)O)C(=O)Nc1ccc2ccccc2c1 [Glu-βNA]
- nonenzymatic turnover [1]: negligible
- kinetically determined pKa-value (QC): 7.55+/−0.02
- pH-optimum of catalysis (QC): ~6.0
